Reference: patent publication EP1039902B1, “INHIBITORS OF GAP JUNCTION COMMUNICATION” (THE SCRIPPS RESEARCH INSTITUTE, priority 1997, dated 1999)
Entries after “also recorded” stand apart in the source; their conditions may differ. Like-named read-outs stand apart in the source and are kept apart here.

What was measured:
[1] = tested on: Chinese hamster V79 cells; settings: cited from earlier work
[2] = tested on: rat glial cell gap junction; assay: Gap junction dye coupling assay (Lucifer yellow dye transfer; microinjection or scrape loading); type: cell-based
Description: (§1) Rat glial cells (Suter et al., 1987) obtained from Dr. Trosko's laboratory were cultured in standard plastic tissue cultureware in Richter's Improved Minimal Essential Medium (Irvine Scientific, Santa Ana, CA), supplemented with 10% fetal calf serum and 50 µg/ml gentamicin sulfate, and incubated in a humidified atmosphere of 95% air/5% CO2 at 37°C. The cells were passaged by trypsinization and used at passages 4-8. BHK (baby hamster kidney) cells that were stably transfected with a β1 connexin cDNA (Kumar et al., 1995) were cultured in DMEM medium supplemented with 5% fetal calf serum and 50 µg/ml gentamicin sulfate, and incubated in a humidified atmosphere of 95% air/5% CO2 at 37° C. In order to induce β1 connexin expression in the BHK cells, 100 µM zinc acetate was added to culture medium for 8-18 hours when the cell culture was about 90% confluent.
(§2) Gap junctional communication in glial cell and BHK/β1 cell cultures was assayed by microinjection of 5% Lucifer yellow CH dye in 0.1 M LiCl solution, and quantitated by determining the number of directly adjacent, neighboring cells that received dye (dye-coupling). Micropipettes were loaded with the dye solution by backfilling. Cells were visualized using a Nikon Diaphot inverted phase contrast/ epifluorescent microscope, and impaled with dye-filled micropipettes using an Eppendorf microinjector (model 5246). Five minutes after dye-injection, the transfer of dye to directly adjacent cells was determined using epifluorescent illumination. For each treatment condition, ten cells were microinjected in each of three dishes, the total number of dye-coupled neighboring cells was calculated and compared to determine the % dye-coupling. For scrape loading measurements, Lucifer yellow CH (0.05% dye in PBS) was loaded intracellularly by cutting or scraping cells in the monolayer with a sharp knife. The dye solution was left in the dish for 90 seconds, then the solution was discarded, and the dish subsequently washed with PBS. The cells were examined for dye transfer with an inverted epifluorescence microscope, and the degree of communication was assessed by determining the extent of Lucifer yellow transfer into contiguous cells.

[3] = tested on: rat glial cells; assay: Calcium wave propagation (Fluo-3, mechanical stimulation); type: cell-based
Description: Rat glial cells were loaded with 5 µM Fluo-3/AM (Calbiochem) in Hank's balanced salt solution containing 25 mM HEPES buffer (HBSS/HEPES) for 1 hour, at which point the loading buffer was exchanged for new HBSS/HEPES buffer. The cell cultures were then left at room temperature for at least 30 minutes. Mechanical stimulation of a single cell was performed as follows: a glass micropipette (tip diameter of approximately 0.5 µm) was micro-manipulated downward on to a single cell causing a transient deformation of the cell membrane. The calcium image was then examined with an inverted fluorescence microscope, and photographed with a digital fluorescence microscope (excitation = 506 nm, emmision = 526 nm). The degree of calcium wave propagation was quantitated by counting at different time points the number of transmitting cells in one linear direction away from the stimulated cell. Junctional dye transfer rates were simultaneously examined by microinjection of Lucifer yellow CH in the same dishes; the methods for dye transfer assay was described in assay procedures, gap junction dye coupling assays. For calcium wave and dye transfer studies, the drug was preincubated with the glial cells for 10 minutes, and the drug was left in the experimental solution throughout the examination. All measurements were performed at room temperature.

[4] = tested on: rat glial cells; assay: Gap junction electrical coupling assay (double whole cell patch recording); type: cell-based
Description: Junctional conductance was measured using double whole cell patch recording performed on pairs of rat glial cells as described (Miller et al., (1992) J Mem. Biol. 128, 91-102) with a pipette solution of (in […]): Kaspartate 160, EGTA 10, CaCl2 2, HEPES 10 (pH 7.2), ATP 4. The external solution contained (in mM): NaCl 160, KCl 4.5, CaCl2 2, MgCl2 1, HEPES 10, pH 7.4. Both cells were held at -40 mV and pulses to -20 mV were alternately applied to each cell. Holding currents were subtracted in the records shown. Cells that were examined were generally in contact with other cells. The electrical conductance was calculated as the junctional current divided by 20 mV. All dye-coupling and conductance studies were performed at room temperature.

[5] = tested on: mammalian myocardial cells; assay: Gap junctional communication between myocardial cells (preliminary analysis); type: cell-based; settings: unpublished observations
[6] = tested on: BHK/β1 cells; assay: Gap junction dye transfer between β1 connexin-transfected BHK cells; type: cell-based, baby hamster
Description: as §1, §2

[7] = animals, ip or iv injection; cited from earlier work
[8] = tested on: α1 connexin; assay: Immunoblotting of α1 connexin phosphorylation isoforms; type: cell-based, rat
Description: Plasma membrane fractions containing gap junctions were obtained after hypotonic alkali extraction of the glial cells. The extracted protein was dissolved in 2% SDS and the total protein was determined using the Bio-Rad DC Protein Assay kit (Bio-Rad Corp.). 10 µg of protein was electrophoresed by 10% SDS-PAGE, and subsequently blotted electrophoretically on to Immobilon-P membranes (Millipore Corp.). Gap junction protein was detected using anti-α1 connexin polyclonal rabbit antibodies, and the HRP/Chemiluminescence detection kit (Amersham Corp.) following the manufacturer's instructions.

[9] = tested on: striatal astrocytes; settings: cited from earlier work
[10] = tested on: rat liver epithelial cells; settings: cited from earlier work
[11] = Induction of physiological sleep; type: in vivo; settings: rats
[12] = tested on: astrocyte; settings: cited from earlier work
[13] = tested on: astrocyte calcium waves; settings: mechanical stimulation or local glutamate application; cited from earlier work
[14] = result in words, concentration not stated at the place

Compound: CCCCCCCC/C=C\CCCCCCCC(=O)OCC(CO)OC(C)=O (racemic) [1-oleoyl-2-acetylglycerol, reference compound]
- gap junction inhibition [1]: gap junction inhibition
- inhibition of gap junction-mediated dye transfer [2, 14]: not inhibitors

Compound: CCCCCCCC/C=C\CCCCCCCC(N)=O [oleamide, cis-9-octadecenamide]
- mechanically-stimulated or glutamate-induced calcium wave propagation [3]: no inhibitory effect
- mechanically-induced calcium wave propagation ([3]; 50 µM, preincubation from 10 minutes to 4 hours): no impact; also recorded: indistinguishable manner from control cell populations
- junctional electrical coupling ([4]; 50 µM): completely blocked; also recorded: completely uncoupled
- residual junctional conductance (upper limit) ([4]; 50 µM): less than 50 pS
- mean junctional conductance ([4]; 50 µM, n=5): 0.5 ± 0.7 nS
- sensitivity of gap junctional communication to the inhibitory action [5]: not as sensitive
- effect on dye transfer ([6]; 50 µM for 10 min): no dye transfer
- effect on dye transfer ([6]; 50 µM for 10 min, listed as Oleamide): rapidly and completely block dye transfer
- effect on dye transfer ([6]; 50 µM, 4 hours of treatment): completely blocked dye transfer
- dye transfer ([6]; 50 µM, 4 hours of treatment, zinc induced sample): 0.31 ± 0.24%
- inhibition of glial cell dye transfer ([2]; 20 µM, preincubation 4 h): significantly inhibited
- block of intercellular dye transfer, microinjected Lucifer yellow ([2]; 50 µM for 10 min): completely blocked intercellular dye transfer
- inhibition of dye transfer ([2]; 50 µM, 4 h prior to injection of Lucifer yellow (dose-response)): complete inhibition
- recovery of dye transfer after removal of oleamide ([2]; 50 µM, then fresh media without oleamide): Complete recovery of dye transfer to control levels was observed within one hour
- inhibition at 20 µM ([2]; Rattus norvegicus, Glial cell, read-out: inhibition of dye transfer): ~50%
- restoration of dye-coupling under continual exposure ([2]; continually exposed for up to 24 h): no restoration of dye-coupling
- time for junctional communication to recover to control levels after removal of oleamide ([2]; culture media changed): ≤ 1 h
- inhibition of gap junction-mediated dye transfer [2, 14]: most potent inhibitor
- dye transfer after scrape loading with Lucifer yellow ([2]; scrape loaded cells, pretreatment with oleamide): fully abrogated; also recorded: no dye spread to adjacent cells
- induction of physiological sleep [7]: induce physiological sleep
- α1 connexin phosphorylation profile (P2 isoform) ([8]; 50 µM, 4 hours): dramatic loss of the P2 isoform
- reversibility of the effect on the α1 phosphorylation profile ([8]; removal of oleamide, normal culture media for 4 hours): proved reversible

Compound: CCCCC/C=C\C/C=C\C/C=C\C/C=C\CCCC(=O)O [arachidonic acid]
- gap junction inhibition [9]: inhibit the gap junction

Compound: CC/C=C\C/C=C\C/C=C\CCCCCCCC(=O)O [α-linolenic acid]
- gap junction inhibition [10]: inhibit the gap junction

Compound: CCCCCCCC/C=C\CCCCCCCCCCCC(N)=O [erucamide, Erucamide]
- induction of physiological sleep [11]: does not induce physiological sleep
- inhibition of gap junction-mediated dye transfer [2, 14]: not an inhibitor

Compound: CCCCC/C=C\C/C=C\C/C=C\C/C=C\CCCC(=O)NCCO [anandamide, reference compound]
- gap junction-mediated dye transfer [12]: inhibit gap junction-mediated dye transfer
- calcium wave transmission ([3]; concentration not given): without affecting calcium wave transmission
- electrical coupling ([4]; concentration not given): selectively inhibiting gap junction communication
- propagation of astrocyte calcium waves [13]: block the propagation of astrocyte calcium waves
- effect on dye transfer ([6]; concentration not given): inhibitory effects
- inhibition of gap junction-mediated dye transfer ([2]; 50 µM): effective inhibitors
- potency of gap junction inhibition relative to oleamide ([2]; comparison in words): blocked dye transfer at doses comparable to oleamide
- inhibition of gap junction-mediated dye transfer [2, 14]: selectively inhibiting gap junction communication
